Source: patent US20230382944A1, “NOVEL COCRYSTALS OF DEXAMETHASONE” (Versitech Limited, priority 2022, published 2023)

What was measured:
Format in all cases: physicochemical
[1] = Particle size distribution measurement by laser diffraction; conditions: sieved below 63 μm, n = 3; for Span: (D90-D10)/D50
Method: The particle size and size distribution of the powders was determined using laser diffraction equipment, Mastersizer 3000 (Malvern Instruments Ltd, Worcestershire, UK) with Aero S dry powder disperser. […] The particle size distribution was calculated from the light scattering pattern using Mie theory. Particle size at 10% (D10), 50% (D50), 90% (D90) of the volume distribution were calculated automatically using the Mastersizer 3000 software […]. Span was calculated as (D90-D10)/D50. All the samples were measured in triplicate.

[2] = Stability study: drug assay by HPLC and PXRD before and after storage at 25° C./75% RH; conditions: storage 25° C./75% RH; for % Difference (Day 0-Day 30): Day 0 vs Day 30
Method: (§1) The mobile phase consisted of a mixture of methanol and water (65:35, v/v). A 30 μL aliquot of each sample solution was injected onto the column with a flow rate of 1 mL/min.
The samples before and after the storage were collected for PXRD analysis.

[3] = In-vitro drug release study for nasal delivery in pH 5.5 simulated nasal fluid; conditions: for IDR ratio of DEX cocrystals to DEX: pH 5.5 SNF, estimated by ratio of the slope with sphere assumption; for release in SNF relative to raw DEX (fold faster) / dissolution relative to raw DEX (fold faster): pH 5.5 simulated nasal fluid; for release in SNF relative to raw DEX (fold faster): at 120 min, particle size below 63 μm; for dissolution relative to raw DEX (fold faster): time point not stated
Method: as §1
The solution was stirred at 50 rpm on a magnetic stirrer. The dissolution medium and temperature were selected to mimic the physiological condition in the nasal cavity^35, 36. At designated times of 5, 10, 15, 20, 30, 45, 60, 90, and 120 min, 1 mL of the dissolution medium was withdrawn and replaced with an equal volume of fresh medium. The sample solution was filtered through 0.45 μm nylon syringe filters and assayed for drug content by HPLC. The intrinsic dissolution rate (IDR) is determined by the following equation: IDR=(dm/dt)max/A, where (dm/dt)max is the slope of the initial linear region of the cumulative dissolution curve until 10% of drug is dissolved, and A is the specific surface area of the dissolution sample. The following assumptions were made: (i) spherical particles, (ii) constant particle size, and (iii) constant number of particles during the initial phase of the dissolution experiment under sink condition. With the assumptions, the particle size distribution data collected by laser diffractometry is used for the particle surface area (SAparticle) calculation. The total number of particles (n) subject to dissolution is calculated by Vbulk/Vparticle, where Vparticle is the volume of each primary particle, and Vbulk is the volume of compound added to the dissolution medium. The total surface area of all particles added to the dissolution medium is thus calculated through nSAparticle. Finally, the specific surface area (A, m^2/g) defined as the total surface area of a material per unit of mass could be obtained.

[4] = In-vitro aerosol performance evaluation with Next Generation Impactor; conditions: NGI; for FPF: 90 L/min, particles <5 μm vs recovered dose
Method: The spray dryer is equipped with a Buchi B-296 Dehumidifier and B-295 Inert Loop and a spray nozzle tip diameter of 0.7 mm with nitrogen as the atomization gas. The formulations were prepared according to the processing parameters listed in Table 6, above, with a rate of aspirations fixed at 100% (approximately 35 m^3/h), resulting in an outlet temperature of about 44° C.
A thin layer of silicon grease (Slipicone; DC Products, Waverley, VIC, Australia) coated onto the impactor stages minimizes particle bounce. […] Precise amounts of methanol were used for rinsing DEX and RES in all stages. The solutions were subsequently filtered using a 0.45 μm nylon syringe filters and the solutions assayed by HPLC. The recovered dose, fine particle fraction (FPF), mass median aerodynamic diameter (MMAD), and geometric standard deviation (GSD) were calculated. The FPF is the mass fraction of the particles <5 μm with respect to the recovered dose. The recovered dose was defined as the sum of powder mass assayed on all the parts.

[5] = spray-dried 1:1 from methanol, flow rate 90 L/min

SMILES	Volumetric size D10 [1] [μm]	Volumetric size D50 [1] [μm]	Span [1]	% of DEX Remaining (n = 3) ([2]; Day 0) [%]	% Difference (Day 0-Day 30) [2] [%]	% of DEX Remaining (n = 3) ([2]; Day 7) [%]	% of DEX Remaining (n = 3) ([2]; Day 30) [%]	Volumetric size D90 [1] [μm]	IDR ratio of DEX cocrystals to DEX [3]	release in SNF relative to raw DEX (fold faster) [3] [fold]	dissolution relative to raw DEX (fold faster) [3] [fold]	FPF ([4]; spray-dried 1:1 from methanol) [% w/w]	FPF ([4]; spray-dried 1:1 from methanol, listed as spray dried cocrystal formulation) [% w/w]	GSD [4, 5] [μm]	MMAD [4, 5] [μm]	MMAD ([4]; spray-dried 1:1 from methanol, flow rate 90 L/min, listed as spray dried cocrystal formulation) [μm]	aerosolized powders deposited on stages 3-6 ([4]; spray-dried, aerodynamic diameters 3.61 to 0.76 μm) [%]
C[C@@H]1C[C@H]2[C@@H]3CCC4=CC(=O)C=C[C@]4(C)[C@@]3(F)[C@@H](O)C[C@]2(C)[C@@]1(O)C(=O)CO [DEX, 9-fluoro-11β,17,21-trihydroxy-16α-methylpregna-1,4-diene-3,20-dione, reference compound]	0.93 ± 0.16	1.52 ± 0.50	3.15 ± 0.46	98.77 ± 2.97	4.27 ± 5.14	97.23 ± 4.27	94.50 ± 3.00										
CC1CC2C3CCC4=CC(=O)C=CC4(C)C3(F)C(O)CC2(C)C1(O)C(=O)CO.Oc1ccccc1O (centres unmarked) [DEX-CAT]	8.49 ± 1.76	24.87 ± 6.75	5.14 ± 0.28	97.83 ± 2.32	2.38 ± 5.49	96.73 ± 4.72	95.45 ± 3.35	49.27 ± 6.42	76.86	2.4	3						
CC1CC2C3CCC4=CC(=O)C=CC4(C)C3(F)C(O)CC2(C)C1(O)C(=O)CO.Oc1cccc(O)c1 (centres unmarked) [DEX-RES]	4.46 ± 1.93	12.0 ± 0.42	7.69 ± 0.93	99.65 ± 2.58	4.50 ± 4.07	97.18 ± 3.87	95.15 ± 3.17	35.03 ± 8.92	48.29	2.4	3	35.43	35.43±4.97	2.30	2.96	2.96±0.49	30.26
